Experimental data taken from patent US20230085307A1, “PYRIDAZINONE COMPOUND AND HERBICIDE” (NISSAN CHEMICAL CORPORATION, priority 2019, published 2023).

Experiments:
[1] = test system: green foxtail; test: Test Example 4: herbicidal effect by soil treatment (Table 19, symbol G); type: in vivo, green foxtail (Setaria viridis)
Outline: (§1)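 Three weeks of greenhouse growth at 25° C. to 30° C. followed a uniform surface spray of water-diluted emulsion at a predetermined herbicide amount. Seeds had been sown beforehand under about 1.5 cm of sterilized diluvial soil. Grading followed criteria set out in an earlier test.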

[2] = test system: redroot pigweed; test: Test Example 4: herbicidal effect by soil treatment (Table 19, symbol N); type: in vivo, redroot pigweed (Amaranthus retroflexus)
Outline: as §1

[3] = test system: persian speedwell; test: Test Example 5: herbicidal effect by foliage application, plastic box (Table 20, symbol R); type: in vivo, Persian speedwell (Veronica persica); settings: foliage application
Outline: (§2)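 Plants sown in sterilized diluvial soil and grown 14 days in a greenhouse at 25° C to 30° C, then sprayed on the foliage with the compound's emulsion diluted in water to a predetermined herbicide amount. Injury to weeds and crops scored three weeks after application on a visual rating scale.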

[4] = test system: velvetleaf; test: Test Example 5: herbicidal effect by foliage application, plastic box (Table 20, symbol M); type: in vivo, velvetleaf (Abutilon theophrasti); settings: foliage application
Outline: as §2

[5] = test system: blackgrass; test: Test Example 5: herbicidal effect by foliage application, plastic box (Table 20, symbol J); type: in vivo, blackgrass (Alopecurus myosuroides); settings: foliage application
Outline: as §2

[6] = test system: Chinese sprangletop; test: Test Example 3: herbicidal effect by foliage application, Wagner pot (Table 18, symbol D); type: in vivo, chinese sprangletop (Leptochloa chinensis)
Outline: (§3)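 Plants were sown in alluvial soil held under 0.1–0.5 cm standing water and grown 14 days in a greenhouse at 25–30 °C. An emulsifiable formulation, water-diluted to the set dose, was then sprayed onto the foliage, and effects were scored three weeks later using previously defined criteria.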

[7] = test system: windgrass; test: Test Example 4: herbicidal effect by soil treatment (Table 19, symbol L); type: in vivo, windgrass (Apera spica-venti)
Outline: as §1

[8] = test system: wild oat; test: Test Example 5: herbicidal effect by foliage application, plastic box (Table 20, symbol I); type: in vivo, wild oat (Avena fatua); settings: foliage application
Outline: as §2

[9] = test system: blackgrass; test: Test Example 4: herbicidal effect by soil treatment (Table 19, symbol J); type: in vivo, blackgrass (Alopecurus myosuroides)
Outline: as §1

[10] = test system: barnyard grass; test: Test Example 4: herbicidal effect by soil treatment (Table 19, symbol H); type: in vivo, barnyard grass (Echinochloa crus-galli)
Outline: as §1

[11] = test system: green foxtail; test: Test Example 5: herbicidal effect by foliage application, plastic box (Table 20, symbol G); type: in vivo, green foxtail (Setaria viridis); settings: foliage application
Outline: as §2

[12] = test system: false cleavers; test: Test Example 5: herbicidal effect by foliage application, plastic box (Table 20, symbol Q); type: in vivo, false cleavers (Galium spurium); settings: foliage application
Outline: as §2

[13] = test system: velvetleaf; test: Test Example 4: herbicidal effect by soil treatment (Table 19, symbol M); type: in vivo, velvetleaf (Abutilon theophrasti)
Outline: as §1

[14] = test system: Italian ryegrass; test: Test Example 5: herbicidal effect by foliage application, plastic box (Table 20, symbol K); type: in vivo, Italian ryegrass (Lolium multiflorum); settings: foliage application
Outline: as §2

[15] = test system: southern crabgrass; test: Test Example 4: herbicidal effect by soil treatment (Table 19, symbol F); type: in vivo, southern crabgrass (Digitaria ciliaris)
Outline: as §1

[16] = test system: Italian ryegrass; test: Test Example 4: herbicidal effect by soil treatment (Table 19, symbol K); type: in vivo, Italian ryegrass (Lolium multiflorum)
Outline: as §1

[17] = test system: barnyard grass; test: Test Example 5: herbicidal effect by foliage application, plastic box (Table 20, symbol H); type: in vivo, barnyard grass (Echinochloa crus-galli); settings: foliage application
Outline: as §2

[18] = test system: lambsquarters; test: Test Example 5: herbicidal effect by foliage application, plastic box (Table 20, symbol O); type: in vivo, lambsquarters (Chenopodium album); settings: foliage application
Outline: as §2

[19] = test system: wild oat; test: Test Example 4: herbicidal effect by soil treatment (Table 19, symbol I); type: in vivo, wild oat (Avena fatua)
Outline: as §1

[20] = test system: lambsquarters; test: Test Example 4: herbicidal effect by soil treatment (Table 19, symbol O); type: in vivo, lambsquarters (Chenopodium album)
Outline: as §1

[21] = test system: persian speedwell; test: Test Example 4: herbicidal effect by soil treatment (Table 19, symbol R); type: in vivo, Persian speedwell (Veronica persica)
Outline: as §1

[22] = test system: southern crabgrass; test: Test Example 5: herbicidal effect by foliage application, plastic box (Table 20, symbol F); type: in vivo, southern crabgrass (Digitaria ciliaris); settings: foliage application
Outline: as §2

[23] = test system: windgrass; test: Test Example 5: herbicidal effect by foliage application, plastic box (Table 20, symbol L); type: in vivo, windgrass (Apera spica-venti); settings: foliage application
Outline: as §2

[24] = test system: rice flat sedge; test: Test Example 3: herbicidal effect by foliage application, Wagner pot (Table 18, symbol E); type: in vivo, rice flat sedge (Cyperus iria)
Outline: as §3

[25] = test system: chickweed; test: Test Example 4: herbicidal effect by soil treatment (Table 19, symbol P); type: in vivo, common chickweed (Stellaria media)
Outline: as §1

[26] = test system: barnyard grass; test: Test Example 3: herbicidal effect by foliage application, Wagner pot (Table 18, symbol H); type: in vivo, barnyard grass (Echinochloa crus-galli)
Outline: as §3

[27] = 294 g/ha, 3 weeks after application
[28] = amount of applied herbicide 320 g/ha
[29] = 320 g/ha, three weeks after application

COc1ccccc1-c1sc2ccc(F)cc2c1-c1c(O)c(C)nn(C)c1=O [2-024]
herbicidal effect rating, G: green foxtail ([1]; 294 g/ha): 3 (Herbicidal rate of 40% or more and less than 70%)
herbicidal effect rating, N: redroot pigweed ([2]; 294 g/ha): 5 (Herbicidal rate of 90% or more (almost completely withered))
effect on persian speedwell (R) [3, 27]: 5 (Herbicidal rate of 90% or more (almost completely withered))
effect on velvetleaf (M) [4, 27]: 5 (Herbicidal rate of 90% or more (almost completely withered))
effect on blackgrass (J) [5, 27]: 5 (Herbicidal rate of 90% or more (almost completely withered))
herbicidal effect on D (Chinese sprangletop), rating 0-5 ([6]; 294 g/ha): 3 (Herbicidal rate of 40% or more and less than 70%)
herbicidal effect rating, L: windgrass ([7]; 294 g/ha): 0 (Herbicidal rate of 5% or less (almost no effect))
effect on wild oat (I) [8, 27]: 4 (Herbicidal rate of 70% or more and less than 90%)
herbicidal effect rating, J: blackgrass ([9]; 294 g/ha): 2 (Herbicidal rate of 20% or more and less than 40%)
herbicidal effect rating, H: barnyard grass ([10]; 294 g/ha): 1 (Herbicidal rate of 5% or more and less than 20%)
effect on green foxtail (G) [11, 27]: 4 (Herbicidal rate of 70% or more and less than 90%)
effect on false cleavers (Q) [12, 27]: 5 (Herbicidal rate of 90% or more (almost completely withered))
herbicidal effect rating, M: velvetleaf ([13]; 294 g/ha): 2 (Herbicidal rate of 20% or more and less than 40%)
effect on Italian ryegrass (K) [14, 27]: 3 (Herbicidal rate of 40% or more and less than 70%)
herbicidal effect rating, F: southern crabgrass ([15]; 294 g/ha): 3 (Herbicidal rate of 40% or more and less than 70%)
herbicidal effect rating, K: Italian ryegrass ([16]; 294 g/ha): 0 (Herbicidal rate of 5% or less (almost no effect))
effect on barnyard grass (H) [17, 27]: 5 (Herbicidal rate of 90% or more (almost completely withered))
effect on lambsquarters (O) [18, 27]: 5 (Herbicidal rate of 90% or more (almost completely withered))
herbicidal effect rating, I: wild oat ([19]; 294 g/ha): 0 (Herbicidal rate of 5% or less (almost no effect))
herbicidal effect rating, O: lambsquarters ([20]; 294 g/ha): 5 (Herbicidal rate of 90% or more (almost completely withered))
herbicidal effect rating, R: persian speedwell ([21]; 294 g/ha): 4 (Herbicidal rate of 70% or more and less than 90%)
effect on southern crabgrass (F) [22, 27]: 3 (Herbicidal rate of 40% or more and less than 70%)
effect on windgrass (L) [23, 27]: 4 (Herbicidal rate of 70% or more and less than 90%)
herbicidal effect on E (rice flat sedge), rating 0-5 ([24]; 294 g/ha): 4 (Herbicidal rate of 70% or more and less than 90%)
herbicidal effect rating, P: chickweed ([25]; 294 g/ha): 3 (Herbicidal rate of 40% or more and less than 70%)
herbicidal effect on H (barnyard grass), rating 0-5 ([26]; 294 g/ha): 4 (Herbicidal rate of 70% or more and less than 90%)

CCOc1cc2sc(-c3ccccc3OC)c(-c3c(O)c(C)nn(C)c3=O)c2cc1F [5-065]
G: green foxtail, herbicidal effect grade [1, 28]: 4 (Herbicidal rate of 70% or more and less than 90%)
N: redroot pigweed, herbicidal effect grade [2, 28]: 5 (Herbicidal rate of 90% or more (almost completely withered))
herbicidal effect on persian speedwell (R) [3, 29]: 5 (Herbicidal rate of 90% or more (almost completely withered))
herbicidal effect on velvetleaf (M) [4, 29]: 5 (Herbicidal rate of 90% or more (almost completely withered))
herbicidal effect on blackgrass (J) [5, 29]: 4 (Herbicidal rate of 70% or more and less than 90%)
herbicidal effect on Chinese sprangletop (D) ([6]; 320 g/ha): 3 (Herbicidal rate of 40% or more and less than 70%)
L: windgrass, herbicidal effect grade [7, 28]: 3 (Herbicidal rate of 40% or more and less than 70%)
herbicidal effect on wild oat (I) [8, 29]: 4 (Herbicidal rate of 70% or more and less than 90%)
J: blackgrass, herbicidal effect grade [9, 28]: 3 (Herbicidal rate of 40% or more and less than 70%)
H: barnyard grass, herbicidal effect grade [10, 28]: 4 (Herbicidal rate of 70% or more and less than 90%)
herbicidal effect on green foxtail (G) [11, 29]: 5 (Herbicidal rate of 90% or more (almost completely withered))
herbicidal effect on false cleavers (Q) [12, 29]: 5 (Herbicidal rate of 90% or more (almost completely withered))
M: velvetleaf, herbicidal effect grade [13, 28]: 2 (Herbicidal rate of 20% or more and less than 40%)
herbicidal effect on Italian ryegrass (K) [14, 29]: 4 (Herbicidal rate of 70% or more and less than 90%)
F: southern crabgrass, herbicidal effect grade [15, 28]: 0 (Herbicidal rate of 5% or less (almost no effect))
K: Italian ryegrass, herbicidal effect grade [16, 28]: 3 (Herbicidal rate of 40% or more and less than 70%)
herbicidal effect on barnyard grass (H) [17, 29]: 5 (Herbicidal rate of 90% or more (almost completely withered))
herbicidal effect on lambsquarters (O) [18, 29]: 5 (Herbicidal rate of 90% or more (almost completely withered))
I: wild oat, herbicidal effect grade [19, 28]: 1 (Herbicidal rate of 5% or more and less than 20%)
O: lambsquarters, herbicidal effect grade [20, 28]: 5 (Herbicidal rate of 90% or more (almost completely withered))
R: persian speedwell, herbicidal effect grade [21, 28]: 5 (Herbicidal rate of 90% or more (almost completely withered))
herbicidal effect on southern crabgrass (F) [22, 29]: 4 (Herbicidal rate of 70% or more and less than 90%)
herbicidal effect on windgrass (L) [23, 29]: 5 (Herbicidal rate of 90% or more (almost completely withered))
herbicidal effect on rice flat sedge (E) ([24]; 320 g/ha): 4 (Herbicidal rate of 70% or more and less than 90%)
P: chickweed, herbicidal effect grade [25, 28]: 5 (Herbicidal rate of 90% or more (almost completely withered))
herbicidal effect on barnyard grass (H) ([26]; 320 g/ha): 4 (Herbicidal rate of 70% or more and less than 90%)
